Measurements taken from patent US20190255144A1, “SPECIFIC OLIGOPEPTIDES AS ANTI-ANGIOGENIC DRUGS” (NEURONAX, priority 2014, published 2019).
Several values for one entry are separate records, joined by “and”; a condition that tells them apart may be missing. Identical values can stand only once.

Legend:
U87-MG cells = test: Proteome array of supernatants of U87-MG cells (proteins involved in angiogenesis); assay type: cell-based; details: for DPPIV/CD 26, proteome array / Endoglin/CD105, proteome array / Endothelin-1 (ET-1), proteome array / IGFBP-1, proteome array / IGFBP-3, proteome array / IL-8/CXCL8, proteome array / MCP-1/CCL2, proteome array / NRG1-β1/HRG1-β1, proteome array / Pentraxin 3 (PTX3)/TSG-14, proteome array / Serpin E1/Pal-1, proteome array / TIMP-1, proteome array / TIMP-4, proteome array / TSP-1, proteome array / VEGF, proteome array / uPA, proteome array: supernatant of U87-MG after treatment
Source text: FIGS. 2A to 2C represent analysis results of soluble factors that occur in angiogenesis: • Supernatants of U87-MG cells were studied by proteome array (FIGS. 2A and 2B) for the research of proteins involved in angiogenesis, in the presence of sterile water, TSP-1 and the oligopeptide according to the invention. The secretions of VEGFA via the U87-MG in the medium after treatments with sterile water, TSP-1 and the oligopeptide according to the invention, were metered by ELISA from supernatants (FIG. 2C).

[1] = tested on: tumors from subcutaneous heterotopic grafts; test: Tumors from subcutaneous heterotopic grafts in nude mouse: Ki67, CD31, tumor volume; assay type: in vivo; details: for Tumor Volume D0: day 0 after injection of cancer cells, treatment in hydrogel injected on 21st day; for Tumor Volume D5: day 5 after injection of cancer cells; for Tumor Volume D5 / Tumor Volume D12 / Tumor Volume D17 / Tumor Volume D19: before treatment (21st day); for Tumor Volume D12: day 12 after injection of cancer cells; for Tumor Volume D17: day 17 after injection of cancer cells; for Tumor Volume D19: day 19 after injection of cancer cells; for Tumor Volume D21: day 21 after injection of cancer cells, day of treatment injection in hydrogel; for Tumor Volume D23: day 23 after injection of cancer cells, 48 hours after treatment in hydrogel; for Ki67 labeling quantification, Mean Center / CD31 labeling quantification, Center: tumor center
Source text: FIGS. 7A to 7E show the results of the analysis of the activity of the oligopeptide according to the invention on the proliferation, the vascularization, and the tumor growth in nude mice: • The images A, B and C of FIG. 7A show the immunolabeling of Ki-67 on tumor sections treated by H2O, TSP-1 or the oligopeptide according to the invention respectively. • The images D, E and F of FIG. 7A are magnifications (2×) of FIGS. A, B and C. • The images G, H and I of FIG. 7A represent the immunolabeling of CD31 on tumor sections that are treated by H2O, TSP-1 or the oligopeptide according to the invention respectively (the bars of the scale correspond to 500 μm). • The images J, K and L of FIG. 7A are magnifications (2×) of the images G, H and I.
The Ki-67 labeling was quantified under the various conditions using imageJ software, and comparisons between the center and the edge of tumors and between the conditions were carried out (FIG. 7B) by analysis of variances (ANOVA test). A value of p<0.05 is considered to be significant. * p<0.05 that is compared to the center of the same tumors; $ p<0.05 and $$ p<0.01 that is compared to the control. • The CD31 labeling was quantified under the various conditions using image J software, and comparisons between the center and the edge of tumors and between the conditions were carried out (FIG. 7C) by analysis of variances (ANOVA test). […] The injections of the treatments (hydrogel by itself, TSP-1 and the oligopeptide according to the invention (NX) were carried out on the 21st day (black arrow)). The comparison of the tumor sizes in comparison to the controls was carried out by analysis of variances (ANOVA test). ** p<0.01; *** p<0.001.
The experimentation on the mouse confirms the results that are obtained with the CAM model. In this case, the tumors were obtained from subcutaneous heterotopic grafts in the area of the leg of a nude mouse (FIGS. 7B, 7C and 7E).
Tables 6, 7 and 8: These tables correspond to the raw values that are obtained during various analyses conducted on the tumors that are treated in vivo. Analysis of the proliferation (Ki67 labeling quantification) (F), analysis of the vascularization (CD31 labeling quantification) (G) and analysis of the tumor growth as a function of time (measurement of the tumor volume) (H). “con,” “CTRL” and “hydrogel” treatments are control conditions, “TSP” and “TSP1” are the treatments with thrombospondin 1 (TSP-1), and NX is the treatment with the peptide according to the invention

[2] = tested on: genes in experimental tumors obtained from the CAM; test: Quantitative analysis of the mRNA in experimental tumors obtained from CAM; assay type: in vivo, chicken; details: for Mean RQ ANGPT1 / Mean RQ ANGPT2 / Mean RQ CD36 / Mean RQ FGF2 / Mean RQ ITGB1 / Mean RQ KDR / Mean RQ PDGFB / Mean RQ PDGFRB / Mean RQ PLAU / Mean RQ TEK / Mean RQ TIE-1 / Mean RQ TIMP1 / Mean RQ TIMP4 / Mean RQ VEGFA: CAM tumors, relative expression, control = 1, triplicate; for Increase of expression of genes coding for the receptors (ITGB1, PDGFRβ, KDR, TIE-1, TIE-2, CD36) in relation to the control: experimental tumors obtained from the CAM
Source text: These receptors belong to the chicken species and are therefore found in the host vessels. […] Furthermore, the overexpression of ITGB1 at the same time as that of CD36 differentiates the peptide according to the invention (NX) from the TSP-1 (TSP).

HBMECs = test: Migration of endothelial cells; assay type: cell-based
[3] = nude mouse tumor sections, tumor edge

thrombospondin 1 [TSP, reference compound]
IL-8 secretion (in words) (U87-MG cells; medium of treated U87-MG cells): significant increase in IL-8 | DPPIV/CD 26, proteome array (U87-MG cells): 0 | Endoglin/CD105, proteome array (U87-MG cells): 0.09236 | Endothelin-1 (ET-1), proteome array (U87-MG cells): 0.0994 | IGFBP-1, proteome array (U87-MG cells): 1.724 | IGFBP-3, proteome array (U87-MG cells): 0.5713 | IL-8/CXCL8, proteome array (U87-MG cells): 2.901 | MCP-1/CCL2, proteome array (U87-MG cells): 0.1534 | NRG1-β1/HRG1-β1, proteome array (U87-MG cells): 0 | Pentraxin 3 (PTX3)/TSG-14, proteome array (U87-MG cells): 0.7118 | Serpin E1/Pal-1, proteome array (U87-MG cells): 0.855 | TIMP-1, proteome array (U87-MG cells): 4.593 | TIMP-4, proteome array (U87-MG cells): 2.041 | TSP-1, proteome array (U87-MG cells): 0.08481 | VEGF, proteome array (U87-MG cells): 1.397 | uPA, proteome array (U87-MG cells): 1.489 | Tumor Volume D0 ([1]; nude mice): 0 mm^3 | Tumor Volume D5 ([1]; nude mice): 33.55 mm^3 | Tumor Volume D12 ([1]; nude mice): 29.93 mm^3 | Tumor Volume D17 ([1]; nude mice): 49.88 mm^3 | Tumor Volume D19 ([1]; nude mice): 81.07 mm^3 | Tumor Volume D21 ([1]; nude mice): 112.5 mm^3 | Tumor Volume D23 ([1]; nude mice): 101.9 mm^3 | Ki67 labeling quantification, Mean Center ([1]; nude mouse tumor sections): 200.3 | CD31 labeling quantification, Center ([1]; nude mouse tumor sections, raw values, listed as TSP1): 66 and 53 and 63 and 56 | Ki67 labeling quantification, Mean Edge [1, 3]: 228.2 | CD31 labeling quantification, Edge ([1]; nude mouse tumor sections, tumor edge, raw values, listed as TSP1): 53 and 42 and 39 and 45 | Mean RQ ANGPT1 [2]: 0.5106 | Mean RQ ANGPT2 [2]: 0.2678 | Mean RQ CD36 [2]: 2.965 | Mean RQ FGF2 [2]: 0.3429 | Mean RQ ITGB1 [2]: 1.317 | Mean RQ KDR [2]: 1.557 | Mean RQ PDGFB [2]: 0.6327 | Mean RQ PDGFRB [2]: 2.544 | Mean RQ PLAU [2]: 1.491 | Mean RQ TEK [2]: 1.385 | Mean RQ TIE-1 [2]: 1.79 | Mean RQ TIMP1 [2]: 0.4492 | Mean RQ TIMP4 [2]: 0.6642 | Mean RQ VEGFA [2]: 0.5392 | Increase of expression of genes coding for the receptors (ITGB1, PDGFRβ, KDR, TIE-1, TIE-2, CD36) in relation to the control [2]: on a lesser scale

—W—S-G-W—S—S—C—S—R—S—C-G- (WSGWSSCSRSCG; Oligopeptide derived from SCO-Spondin) [NX]
MCP-1 secretion (in words) (U87-MG cells; medium of treated U87-MG cells): large increase in MCP-1 | DPPIV/CD 26, proteome array (U87-MG cells): 0.08222 | Endoglin/CD105, proteome array (U87-MG cells): 0 | Endothelin-1 (ET-1), proteome array (U87-MG cells): 0.09418 | IGFBP-1, proteome array (U87-MG cells): 1.165 | IGFBP-3, proteome array (U87-MG cells): 0.1856 | IL-8/CXCL8, proteome array (U87-MG cells): 1.698 | MCP-1/CCL2, proteome array (U87-MG cells): 1.861 | NRG1-β1/HRG1-β1, proteome array (U87-MG cells): 0.1465 | Pentraxin 3 (PTX3)/TSG-14, proteome array (U87-MG cells): 0.6179 | Serpin E1/Pal-1, proteome array (U87-MG cells): 0.8632 | TIMP-1, proteome array (U87-MG cells): 3.888 | TIMP-4, proteome array (U87-MG cells): 2.15 | TSP-1, proteome array (U87-MG cells): 0.07983 | VEGF, proteome array (U87-MG cells): 1.021 | uPA, proteome array (U87-MG cells): 1.209 | Migration of the HBMECs induced by glioblastoma tumor cells (HBMECs; brought into contact with the U87-MG or HBMECs): inhibits | Migration in the presence of an angiogenic factor (HBMECs; in the presence of VEGF or bFGF): promotes the migration | Cell proliferation, Ki-67 labeling (in words) ([1]; nude mice tumors): decrease in the Ki-67 labeling | CD31 labeling (in words) ([1]; nude mice tumors, periphery, compared with control): reduction in the CD31 labeling on the periphery | Tumor volume change (in words) ([1]; nude mice, 48 hours after the treatment): decrease in volume | Tumor Volume D0 ([1]; nude mice): 0 mm^3 | Tumor Volume D5 ([1]; nude mice): 46.46 mm^3 | Tumor Volume D12 ([1]; nude mice): 39.04 mm^3 | Tumor Volume D17 ([1]; nude mice): 70.6 mm^3 | Tumor Volume D19 ([1]; nude mice): 78.82 mm^3 | Tumor Volume D21 ([1]; nude mice): 135.6 mm^3 | Tumor Volume D23 ([1]; nude mice): 68.03 mm^3 | Ki67 labeling quantification, Mean Center ([1]; nude mouse tumor sections): 181.7 | CD31 labeling quantification, Center ([1]; nude mouse tumor sections, raw values): 26 and 40 and 28 and 38 | Ki67 labeling quantification, Mean Edge [1, 3]: 49.75 | Mean RQ ANGPT1 [2]: 0.8241 | Mean RQ ANGPT2 [2]: 0.6787 | Mean RQ CD36 [2]: 3.831 | Mean RQ FGF2 [2]: 0.686 | Mean RQ ITGB1 [2]: 4.07 | Mean RQ KDR [2]: 4.207 | Mean RQ PDGFB [2]: 2.104 | Mean RQ PDGFRB [2]: 4.366 | Mean RQ PLAU [2]: 1.151 | Mean RQ TEK [2]: 4.539 | Mean RQ TIE-1 [2]: 3.961 | Mean RQ TIMP1 [2]: 1.237 | Mean RQ TIMP4 [2]: 0.6552 | Mean RQ VEGFA [2]: 1.298 | Increase of expression of genes coding for the receptors (ITGB1, PDGFRβ, KDR, TIE-1, TIE-2, CD36) in relation to the control [2]: 4 factor
